Assay results from the SangsterLogP compilation.

Assay: method code SF-AS, from DOI: 10.1016/0048-3575(91)90045-n

| SMILES | logP |
| --- | --- |
| O=C(NC(=O)c1c(F)cccc1F)Nc1ccc(Cl)c(Cl)c1 | 3 |
| CCCCc1ccc(NC(=O)NC(=O)c2c(F)cccc2F)c(Br)c1 | 3.39 |
| O=C(NC(=O)c1c(F)cccc1F)Nc1ccc(Cl)cc1 | 2.12 |
| COc1cc(Br)ccc1NC(=O)NC(=O)c1c(F)cccc1F | 2.02 |
| O=C(NC(=O)c1c(F)cccc1F)Nc1cc(C(F)(F)F)ccc1F | 2.24 |
| Cc1cc(NC(=O)NC(=O)c2c(F)cccc2F)cc(C)c1C | 2.5 |
| CC(C)COc1cc(NC(=O)NC(=O)c2c(F)cccc2F)c(F)cc1Cl | 3.79 |
| Cc1ccc(NC(=O)NC(=O)c2c(F)cccc2F)c(C)c1 | 1.46 |
| C#CCOc1cc(NC(=O)NC(=O)c2c(F)cccc2F)c(F)cc1Cl | 2.2 |
| O=C(NC(=O)c1c(F)cccc1F)Nc1ccccc1C(F)(F)F | 1.17 |
| Cc1ccc(NC(=O)NC(=O)c2c(F)cccc2F)cc1C | 2.1 |
| O=C(NC(=O)c1c(F)cccc1F)Nc1cc(Br)cc(C(F)(F)F)c1Cl | 3.41 |
| CCCCc1ccc(NC(=O)NC(=O)c2c(F)cccc2F)c([N+](=O)[O-])c1 | 3.1 |
| O=C(NC(=O)c1c(F)cccc1F)Nc1ccc(Cl)c(Cl)c1Cl | 2.88 |
| O=C(NC(=O)c1c(F)cccc1F)Nc1ccc(Br)cc1 | 2.29 |
| CCc1cc(Br)ccc1NC(=O)NC(=O)c1c(F)cccc1F | 2.27 |
| Cc1ccc(C)c(NC(=O)NC(=O)c2c(F)cccc2F)c1 | 1.47 |
| O=C(NC(=O)c1c(F)cccc1F)Nc1ccc(Oc2ncc(C(F)(F)F)cc2Cl)c(Cl)c1Cl | 4.46 |
| Cc1c(Br)ccc(NC(=O)NC(=O)c2c(F)cccc2F)c1Cl | 2.73 |
| O=C(NC(=O)c1c(F)cccc1F)Nc1ccc(I)cc1 | 2.46 |
| O=C(NC(=O)c1c(F)cccc1F)Nc1cc(C(F)(F)F)c(Cl)cc1F | 3.02 |

| SMILES | logP |
| --- | --- |
| O=C(NC(=O)c1c(F)cccc1F)Nc1ccc(Br)c(Cl)c1F | 2.86 |
| CCCCc1ccc(NC(=O)NC(=O)c2c(F)cccc2F)cc1 | 3.3 |
| Cc1cc(Br)ccc1NC(=O)NC(=O)c1c(F)cccc1F | 2.03 |
| O=C(NC(=O)c1c(F)cccc1F)Nc1cc(Cl)cc(C(F)(F)F)c1Cl | 3.27 |
| Cc1cc(NC(=O)NC(=O)c2c(F)cccc2F)cc(C)c1Br | 3.28 |
| O=C(NC(=O)c1c(F)cccc1F)Nc1cc(C(F)(F)F)c(Br)c(C(F)(F)F)c1 | 4.56 |
| O=C(NC(=O)c1c(F)cccc1F)Nc1ccc(Cl)cc1C(F)(F)F | 1.98 |
| O=C(NC(=O)c1c(F)cccc1F)Nc1cc(F)cc(C(F)(F)F)c1Cl | 2.86 |
| O=C(NC(=O)c1c(F)cccc1F)Nc1cc(C(F)(F)F)c(Cl)cc1Cl | 3.24 |
| Cc1c(NC(=O)NC(=O)c2c(F)cccc2F)ccc(Br)c1Cl | 2.69 |
| Cc1cc(C)cc(NC(=O)NC(=O)c2c(F)cccc2F)c1 | 2.17 |
| O=C(NC(=O)c1c(F)cccc1F)Nc1cc(OC(F)(F)F)c(F)cc1F | 2.48 |
| O=C(NC(=O)c1c(F)cccc1F)Nc1cc(Cl)cc(C(F)(F)F)c1F | 3.15 |
| O=C(NC(=O)c1c(F)cccc1F)Nc1cc([N+](=O)[O-])c(Br)cc1F | 2.11 |
| O=C(NC(=O)c1c(F)cccc1F)Nc1ccccc1 | 1.16 |
| O=C(NC(=O)c1c(F)cccc1F)Nc1cc(Cl)ccc1Cl | 2.19 |
| O=C(NC(=O)c1c(F)cccc1F)Nc1c(F)ccc(C(F)(F)F)c1Br | 2.22 |
| Cc1cccc(NC(=O)NC(=O)c2c(F)cccc2F)c1C | 1.35 |
| CC(C)Oc1cc(NC(=O)NC(=O)c2c(F)cccc2F)c(F)cc1Cl | 2.84 |
| O=C(NC(=O)c1c(F)cccc1F)Nc1cc(Cl)cc(Cl)c1 | 3.17 |
| O=C(NC(=O)c1c(F)cccc1F)Nc1cccc(Cl)c1F | 1.83 |

| SMILES | logP |
| --- | --- |
| O=C(NC(=O)c1c(F)cccc1F)Nc1cc(Cl)cc(Cl)c1Br | 3.04 |
| CCCCc1ccc(NC(=O)NC(=O)c2c(F)cccc2F)cc1C | 3.64 |
| O=C(NC(=O)c1c(F)cccc1F)Nc1ccc(Cl)cc1F | 1.91 |
| O=C(NC(=O)c1c(F)cccc1F)Nc1cc(C(F)(F)F)c(F)cc1F | 2.34 |
| CCc1ccc(NC(=O)NC(=O)c2c(F)cccc2F)cc1 | 2.2 |
| Cc1cc(Oc2ncc(C(F)(F)F)cc2Cl)c(C)cc1NC(=O)NC(=O)c1c(F)cccc1F | 3.84 |
| CCc1cc(NC(=O)NC(=O)c2c(F)cccc2F)ccc1Br | 3.33 |
| O=C(NC(=O)c1c(F)cccc1F)Nc1cc(C(F)(F)F)cc(Cl)c1Cl | 3.27 |
| Cc1c(Cl)cccc1NC(=O)NC(=O)c1c(F)cccc1F | 1.82 |
| Cc1cc(Br)cc(C)c1NC(=O)NC(=O)c1c(F)cccc1F | 2.12 |
| C=CCOc1cc(NC(=O)NC(=O)c2c(F)cccc2F)c(F)cc1Cl | 2.76 |
| O=C(NC(=O)c1c(F)cccc1F)Nc1ccc(F)cc1 | 1.47 |
| O=C(NC(=O)c1c(F)cccc1F)Nc1cc(C(F)(F)F)cc(C(F)(F)F)c1Br | 3.51 |
| CCCCc1ccc(NC(=O)NC(=O)c2c(F)cccc2F)cc1Br | 4.23 |
| O=C(NC(=O)c1c(F)cccc1F)Nc1c(F)cc(Br)cc1F | 1.73 |
| CSc1cc(Br)ccc1NC(=O)NC(=O)c1c(F)cccc1F | 2.18 |
| O=C(NC(=O)c1c(F)cccc1F)Nc1cc(Cl)cc(C(F)(F)F)c1Br | 3.26 |
| Cc1cc(Oc2ncc(C(F)(F)F)cc2Cl)ccc1NC(=O)NC(=O)c1c(F)cccc1F | 3.23 |
| O=C(NC(=O)c1c(F)cccc1F)Nc1cc(Cl)c(Cl)c(Cl)c1Cl | 2.9 |
| O=C(NC(=O)c1c(F)cccc1F)Nc1cc(C(F)(F)F)cc(C(F)(F)F)c1 | 3.72 |
| O=C(NC(=O)c1c(F)cccc1F)Nc1cc(OC(F)(F)F)c(Br)cc1F | 3.24 |

| SMILES | logP |
| --- | --- |
| O=C(NC(=O)c1c(F)cccc1F)Nc1ccccc1Br | 1.34 |
| O=C(NC(=O)c1c(F)cccc1F)Nc1ccc(Cl)cc1Cl | 2.18 |
| O=C(NC(=O)c1c(F)cccc1F)Nc1cc(Cl)c(F)c(Cl)c1F | 2.9 |
| O=C(NC(=O)c1c(F)cccc1F)Nc1cccc(C(F)(F)F)c1 | 2.56 |
| O=C(NC(=O)c1c(F)cccc1F)Nc1ccc(Oc2ncc(C(F)(F)F)cc2Cl)c(Cl)c1 | 4.52 |
| Cc1ccc(NC(=O)NC(=O)c2c(F)cccc2F)cc1Cl | 2.69 |
| O=C(NC(=O)c1c(F)cccc1F)Nc1ccccc1F | 1.03 |
| O=C(NC(=O)c1c(F)cccc1F)Nc1cc(C(F)(F)F)c(Br)cc1F | 3.17 |
| O=C(NC(=O)c1c(F)cccc1F)Nc1ccc(Br)c(OC(F)(F)F)c1 | 3.48 |
| O=C(NC(=O)c1c(F)cccc1F)Nc1c(F)cc(Br)c(C(F)(F)F)c1Br | 3.07 |
| O=C(NC(=O)c1c(F)cccc1F)Nc1cc(Cl)c(Oc2ncc(C(F)(F)F)cc2Cl)c(Cl)c1 | 5.54 |
| O=C(NC(=O)c1c(F)cccc1F)Nc1cccc(Cl)c1Cl | 2.09 |
| O=C(NC(=O)c1c(F)cccc1F)Nc1ccc(Cl)c(C(F)(F)F)c1 | 3.33 |
| O=C(NC(=O)c1c(F)cccc1F)Nc1ccc(F)c(C(F)(F)F)c1 | 2.64 |
| Cc1cc(NC(=O)NC(=O)c2c(F)cccc2F)ccc1Br | 2.8 |
| Cc1cc(NC(=O)NC(=O)c2c(F)cccc2F)ccc1Cl | 2.57 |
| CCCCc1ccc(NC(=O)NC(=O)c2c(F)cccc2F)c(C)c1 | 3.1 |
| O=C(NC(=O)c1c(F)cccc1F)Nc1cc(Cl)c(Cl)c(Cl)c1 | 3.76 |
